Read-outs that look alike come from different tables or passages of the source.
Assays:
[1] = tested on: HBMEC cells; assay: Blood–brain barrier transport study in HBMEC Transwell monolayer; settings: for crossing of the HBMEC-BBB: AerExt 40 µg mL^−1 / RootExt 20 µg mL^−1, 2, 4, 24 h; for RootExt Te (%) ± SD 2 h / RootExt Te (%) ± SD 4 h / RootExt Te (%) ± SD 24 h: RootExt 20 µg mL^−1 apical; for RootExt Te (%) ± SD 2 h / RootExt Te (%) ± SD 4 h / RootExt Te (%) ± SD 24 h / AerExt Te (%) ± SD 2 h / AerExt Te (%) ± SD 4 h / AerExt Te (%) ± SD 24 h: n.q. = not quantified in the basolateral compartment; for AerExt Te (%) ± SD 2 h / AerExt Te (%) ± SD 4 h / AerExt Te (%) ± SD 24 h: AerExt 40 µg mL^−1 apical
[2] = oil/water partition coefficient, ref PubChem, cited from earlier work
[3] = Parallel artificial membrane permeability assay for the blood–brain barrier (PAMPA-BBB); settings: for AerExt log Pe: compound within AerExt donor solution; for AerExt log Pe / RootExt log Pe: 37 °C, 4 h, PBS pH 7.4, n.q. = not quantified in the acceptor plate; for RootExt log Pe: compound within RootExt donor solution; for AerExt Cross BBB Potential: compound within AerExt; for AerExt Cross BBB Potential / RootExt Cross BBB Potential: PAMPA-BBB; for RootExt Cross BBB Potential: compound within RootExt

Oc1ccc(O)c(O)c1 [1,2,4-benzenetriol]
crossing of the HBMEC-BBB [1]: could not cross the HBMEC-BBB
RootExt Te (%) ± SD 2 h [1]: n.q.
RootExt Te (%) ± SD 4 h [1]: n.q.
RootExt Te (%) ± SD 24 h [1]: n.q.
log p ([2]; Table 1): 1.5
AerExt log Pe [3]: n.q.

O=C(O)c1cccc(O)c1O [2,3-dihydroxybenzoic acid]
AerExt Te (%) ± SD 2 h [1]: 17.5 ± 3.5%
AerExt Te (%) ± SD 4 h [1]: 9.6 ± 0.6%
AerExt Te (%) ± SD 24 h [1]: 14.0 ± 3.9%
RootExt Te (%) ± SD 2 h [1]: 21.4 ± 5.3%
RootExt Te (%) ± SD 4 h [1]: 23.9 ± 4.4%
RootExt Te (%) ± SD 24 h [1]: 214.1 ± 45.4%
log p ([2]; Table 1): 1.2
log p ([2]; Table 2): 1.5
AerExt log Pe [3]: n.q.

O=C(O)C=Cc1cc(O)ccc1O [2,5-dihydroxycinnamic acid]
crossing of the HBMEC-BBB [1]: could not cross the HBMEC-BBB
RootExt Te (%) ± SD 2 h [1]: n.q.
RootExt Te (%) ± SD 4 h [1]: n.q.
RootExt Te (%) ± SD 24 h [1]: n.q.
log p ([2]; Table 1): 1.2
AerExt log Pe [3]: −5.68
RootExt log Pe [3]: −5.22

O=C(O)/C=C/c1ccc(O)cc1 [4-coumaric acid]
AerExt Te (%) ± SD 2 h [1]: n.q.
AerExt Te (%) ± SD 4 h [1]: n.q.
AerExt Te (%) ± SD 24 h [1]: n.q.
RootExt Te (%) ± SD 2 h [1]: n.q.
RootExt Te (%) ± SD 4 h [1]: n.q.
RootExt Te (%) ± SD 24 h [1]: n.q.
log p ([2]; Table 1): 1.5
AerExt log Pe [3]: n.q.
RootExt log Pe [3]: n.q.

COc1ccc(C=O)c(O)c1 [4-methoxysalicylaldehyde]
crossing of the HBMEC-BBB [1]: could not cross the HBMEC-BBB
AerExt Te (%) ± SD 2 h [1]: n.q.
AerExt Te (%) ± SD 4 h [1]: n.q.
AerExt Te (%) ± SD 24 h [1]: n.q.
RootExt Te (%) ± SD 2 h [1]: n.q.
log p ([2]; Table 1): 1.5
AerExt log Pe [3]: n.q.

O=c1cc(-c2ccc(O)cc2)oc2cc(O[C@@H]3O[C@H](CO)[C@@H](O)[C@H](O)[C@H]3O)cc(O)c12 [Apigenin 7-glucoside]
crossing of the HBMEC-BBB [1]: could not cross the HBMEC-BBB
AerExt Te (%) ± SD 2 h [1]: n.q.
AerExt Te (%) ± SD 4 h [1]: n.q.
log p ([2]; Table 1): −0.1
AerExt Cross BBB Potential [3]: + (log Pe < −6.5)
RootExt log Pe [3]: n.q.

COc1cc([C@H]2OC[C@H]3[C@@H]2CO[C@@H]3c2cc(OC)c(O[C@@H]3O[C@H](CO)[C@@H](O)[C@H](O)[C@H]3O)c(OC)c2)cc(OC)c1O [Syringaresinol glucoside]
log p ([2]; Table 1): −1.4
AerExt log Pe [3]: n.q.
RootExt log Pe [3]: n.q.

C[C@@H]1CCC=C2CC[C@@H](C(C)(C)O)C[C@]21C [Valerianol]
log p ([2]; Table 1): 3.5
AerExt log Pe [3]: −5.35
RootExt log Pe [3]: −5.59
RootExt Cross BBB Potential [3]: + (log Pe < −6.5)

CC1=C2C[C@H](C(C)(C)O)CC[C@]2(C)CCC1 [epi-γ-eudesmol]
log p ([2]; Table 1): 2.9
AerExt Cross BBB Potential [3]: + (log Pe < −6.5)
RootExt Cross BBB Potential [3]: + (log Pe < −6.5)

COc1cc(/C=C/CO)cc(OC)c1O [trans-sinapyl alcohol]
log p ([2]; Table 1): 1.3
RootExt Cross BBB Potential [3]: + (log Pe < −6.5)

CC(C)=CCC[C@](C)(O)[C@@H]1CC=C(C)CC1 [α-bisabolol]
log p ([2]; Table 1): 1.3
AerExt Cross BBB Potential [3]: + (log Pe < −6.5)
RootExt Cross BBB Potential [3]: + (log Pe < −6.5)

C/C1=C\CC/C(C)=C/CC(C)(C)/C=C/C1 [α-humulene]
log p ([2]; Table 1): 4.5
AerExt log Pe [3]: n.q.
RootExt log Pe [3]: n.q.

C=CC1(C)CCC(=C(C)C)CC1C(=C)C (stereo not shown) [γ-elemene]
log p ([2]; Table 1): 5.4
AerExt log Pe [3]: n.q.
RootExt log Pe [3]: n.q.

CC1=C2C[C@H](C(C)(C)O)CC[C@@]2(C)CCC1 [γ-eudesmol]
log p ([2]; Table 1): 3.7
AerExt Cross BBB Potential [3]: + (log Pe < −6.5)
RootExt Cross BBB Potential [3]: + (log Pe < −6.5)

Farnesyl acetate
log p ([2]; Table 1): 5.3
AerExt log Pe [3]: −5.25

α-epi-7-epi-5-eudesmol
log p ([2]; Table 1): 3.4
AerExt log Pe [3]: n.q.
RootExt log Pe [3]: n.q.

— article PMC12386606, “Evaluation of the In Vitro Blood–Brain Barrier Transport of Ferula persica L. Bioactive Compounds” (International Journal of Molecular Sciences, 2025)
